1 compound from US20210386668A1, “Cyclodextrin for use in the treatment and prevention of late phase bronchoconstriction in allergen-induced asthma” (Universite de Liege, priority 2020, published 2021) can be followed below.

The series deals with healthy subjects. In words: Phase 1 clinical trial, single and multiple HPBCD inhalation. The series is classed as in vivo, human. The source says: Clinical trial protocols have been approved by an independent ethical committee (CHU Liege—University of Liege) in accordance with GCPs, Declaration of Helsinki and European regulations (EudraCT). All participants gave written informed consent before any study-specific procedure. For the phase 1 clinical trial, 8 healthy subjects (4 women and 4 men) from 18 to 40 years were recruited and enrolled in the study at the University Hospital of Liege (Belgium). Patients were randomized and received first the placebo (NaCl 0.9%) or HPBCD at 2.5 mM and 8 days after, the opposite treatment. After 1 week, all patients received HPBCD at 15 mM. One month later, all patients received HPBCD at 15 mM during 5 consecutive days. Apyrogenic and sterile HPBCD powder was diluted with NaCl 0.9% before inhalation (8 ml) with an ultrasonic nebulizer (Devilbiss 2000). General symptoms, asthma scores (ACQ), dyspnea, chest Rx, clinical biology, ECG, vital signs, spirometry, NO, sputum (induced by NaCl 4.5%) were analyzed after treatment periods. The second clinical trial (phase 2a-proof of concept) was a double-blinded, cross-over, placebo-controlled study. 17 mild to moderate asthmatic patients were included in the study at two different sites (University Hospital of Liege and University Hospital Erasme) in Belgium. Characterization visits consisted of dyspnea symptoms recording, ECG, chest Rx, clinical biology, spirometry and vital signs analysis. PD20 (provocative dose that causes a 20% fall in FEV1 from the saline alone value) to inhaled allergen was determined. […] The PD20 of the allergen was calculated from a cumulative dose-response curve, as described previously, Cataldo et al., Matrix metalloproteinase-9, but not tissue inhibitor of matrix metalloproteinase-1, increases in the sputum from allergic asthmatic patients after allergen challenge, Chest. 2002; 122(5):1553-9. All […] received a cumulative concentration of Dermatophagoides pteronyssinus with a reactivity index of 6. After 14 days wash-out period, patients were randomly divided into two groups and received either HPBCD 15 mM or Placebo (NaCl 0.9%) by inhalation (ultrasonic nebulizer (Devilbiss 2000)) twice daily. At the end of this treatment period, lung function (FEV1) was analyzed after allergen (HDM) challenge under the supervision of experienced respiratory clinical physiologists. FEV1 was measured after allergen inhalation challenge at 5, 15, 30, 60, 120, 180, 240, 300 and 360 min. After 28 days wash-out period, patients received the opposite treatment for another 14 days and the FEV1 following allergen challenge was evaluated. All clinical parameters were examined after each treatment period. The endpoint of this proof of concept study was changes in FEV1 over 0-360 min post-allergen challenges. FEV1 in early phase (0-60 min) and late phase (180-360 min) were expressed as: area under the FEV1-versus-time curve (AUC), maximum percentage fall and average percentage fall (calculated by dividing the area under the curve of the percentage fall in FEV1 by the duration of the response period). One patient who received placebo had negative maximum FEV1 decrease and negative average percentage fall in FEV1. These negative values were truncated to 0. Patients had access to […] (salbutamol 100 μg) throughout the study as an «as needed» treatment.
Data are presented as mean±SEM unless specified. The differences between mean values were estimated using a two-tailed Mann-Whitney test (animal and in vitro experiments) unless specified. All animal experiments were repeated at least 2 times; n 6 in each experimental group. ANOVA Friedman test (single dose) and Wilcoxon signed rank test (multiple doses) were used to analyze results obtained during the phase 1 clinical trial. One-tailed Wilcoxon matched pairs test was used to evaluate intra-individual differences in the proof of concept clinical trial. A P value less than 0.05 was considered significant. […]

The mark [1] stands for this setting: multiple dose HPBCD 15 mM, after 5 days inhalation.
The mark [2] stands for this setting: multiple dose HPBCD 15 mM, after 5 days inhalation, mean ± SD.
[3] abbreviates: single dose, HPBCD 2.5 mM, mean ± SD.
Where [4] appears, read: single dose, HPBCD 15 mM, mean ± SD.

`CC(O)COC[C@H]1O[C@@H]2O[C@H]3[C@H](O)[C@@H](O)[C@@H](O[C@H]4[C@H](O)[C@@H](O)[C@@H](O[C@H]5[C@H](O)[C@@H](O)[C@@H](O[C@H]6[C@H](O)[C@@H](O)[C@@H](O[C@H]7[C@H](O)[C@@H](O)[C@@H](O[C@H]8[C@H](O)[C@@H](O)[C@@H](O[C@H]1[C@H](O)[C@H]2O)O[C@@H]8COCC(C)O)O[C@@H]7COCC(C)O)O[C@@H]6COCC(C)O)O[C@@H]5COCC(C)O)O[C@@H]4COCC(C)O)O[C@@H]3COCC(C)O` (stereo partly drawn) [HPBCD, 2-hydroxypropyl-beta-cyclodextrin]: under setting [1], the “Eosinophils (sputum) 5 h after inhalation” value (shortened to “Eosinophils (sputum) 5 h”) amounted to 0.00%, the QT came out at 393.50 ms and the QtTc was 393.30 ms. Also, under setting [2], the FEV1 15 min after inhalation was found to be 4.13 ± 0.87 L, the FEV1 1 h after inhalation stood at 4.07 ± 0.82 L, the FEV1 3 h after inhalation worked out at 4.11 ± 0.87 L and the FEV1 5 h after inhalation worked out at 4.1 ± 0.87 L. For the same compound, the “No measurements (ppb) 15 min after inhalation” value (“No measurements (ppb) 15 min” below) under setting [2] came out at 25.16 ± 9.76 ppb. Moreover, under setting [3], the “Eosinophils (sputum) 5 h” value is 0.00 ± 0.00%, the FEV1 15 min after inhalation is 4.08 ± 0.87 L, the FEV1 1 h after inhalation was determined as 4.11 ± 0.83 L and the FEV1 3 h after inhalation is 4.1 ± 0.82 L. The FEV1 5 h after inhalation under setting [3] worked out at 4.11 ± 0.87 L. Besides, the “No measurements (ppb) 15 min” value (single dose, HPBCD 2.5 mM, mean ± SD, n = 8) is 23.85 ± 7.56 ppb. Besides, under setting [4], the “Eosinophils (sputum) 5 h” value was found to be 0.20 ± 0.49%, the FEV1 15 min after inhalation is 4.01 ± 0.87 L, the FEV1 1 h after inhalation amounted to 4.04 ± 0.86 L and the FEV1 3 h after inhalation is 4.07 ± 0.85 L. The compound also registered an FEV1 5 h after inhalation under setting [4] of 4.08 ± 0.92 L. The “No measurements (ppb) 15 min” value (single dose, HPBCD 15 mM, mean ± SD, n = 8) is recorded as 28.48 ± 17.92 ppb.
